Measurements as given in US8304418B2, “Pyrazolopyrimidinone kinase inhibitor” (Agennix AG, priority 2007, dated 2012).
Converted amounts (≈) assume the structure as drawn. “And” between values parts separate entries of the source, which are not always exact repeats. Identical values can stand only once. Like-named read-outs stand apart in the source and are kept apart here.

Columns and labels:
[1] = PAMPA permeability assay at pH 7.4; type: in vitro ADME
Description: (§1) The assays used for determining the properties of the kinase inhibitors were performed in accordance with standard procedures well known to those skilled in the art. For example, assays for determining inhibitory activity on CDKs or in cellular assays are described in WO 00/218962, WO 2005/026129, and WO 2005/063765. Solubility assays at pH 7.4 were essentially performed as described by Avdeef, A. in Pharmacokinetic Optimization in Drug Research; Testa, B.; van de Waterbeemd, H.; Folkers, G.; Guy, R. Eds.; Wiley-VHC: Zurich, 2001; pp 305-326. PAMPA permeability assays at pH 7.4 were essentially performed as described in Kansy et al., J. Med. Chem. 41: 1007-10, 1998.

[2] = Solubility assay at pH 7.4; type: physicochemical; conditions: pH 7.4, aqueous buffer
Description: as §1

[3] = test system: cell lines A2780, HCT-116, HT-29, HepG2, NCI/ADR-RES, OVCAR3, H460, IMR-90, T98G, A549 among others; experiment: Inhibition of proliferation in a set of cancer-model cell lines; type: cell-based; conditions: units (μM and nM) printed inside the value, read-out: IC50 values, inhibition of proliferation (range over cell lines)
Description: as §1

[4] = test system: human A2780 ovarian tumor cells
Description: Compound P (as hydrochloric acid salt) was formulated in 30% PEG300/70% water, and Compound I (as hydrochloric acid salt) was formulated in 20% PEG300/80% D5W (5% dextrose water) and administered by oral gavage twice every day for 10 days (bid×10), while the Cytoxan control which was administered i.p. in saline every two days over a period of 10 days (q2 d×5): […]

[5] = test system: human A2780 ovarian tumor cells; remark: listed apart in the source
Description: (§4) Xenograft Tumor-Models: 100 athymic nu/nu female mice (6-8 weeks old) from CRL were allowed to acclimate for 4 days. […] The 3rd passage of cells with approximate 90% confluence was used for these experiments. Briefly, on Day 0, mice were inoculated with 0.1 ml (total 5×10^6 cells) of the respective cell-type as a cell suspension (50×10^6 cells/ml) by subcutaneous injection into the fat pad area near the mammary gland under light anesthesia. When the average tumor weight in all mice reached over 100 mg (day 10), 80 animals with an average tumor size of 130 mg were selected and were randomly divided into 8 groups.
(§5) A 20 G gavage needle was used for the oral treatment.
(§6) Tumor growth and body weight were monitored and recorded three times a week. Tumors were measured by determining the length and width of the tumor with a digital caliper. Tumor weight was estimated using the following formula: Tumor Weight (mg)=(w^2×1)×0.52 where w=width and l=length in mm of the tumor.
(§7) Experimental treatment may cause partial regression (PR) or complete regression (CR) of tumors. PR is defined when the tumor size is 50% or less than the starting (day 1) size but greater than 0.0 mg for three consecutive measurements during the course of the study. CR occurs when there is no measurable tumor mass for three consecutive measurements. Cures are defined when CR are maintained until the completion of the experiment.
(§8) Mice were sacrificed when their tumors reached the 1000 mm^3 endpoint volume. Treatment efficacy was determined as Log Cell Kill (LCK).
(§9) Toxic deaths are defined as deaths caused by compound treatment and not by advanced disease state. […] Non-tumor related deaths after this point are recorded, but not considered toxic deaths.
(§10) Briefly, the empirical distributions of T and Td were derived from B=1000 realisations of random selection of n individual animals with replacement from the set i=1, . . . , n of the appropriate group of mice containing n evaluable animals, estimating the mean tumor size for such selection of animals for each time-point, and linear regression analysis from a semi-log plot of such averages against time. Dead mice and mice with no measurable tumor size were treated as missing data and were ignored when calculating the average.

H460 NSCLC = conditions: for Toxic Mortality: N=10; for Max % TGI (d): day 13
Description: as §4, §5, §6, §7, §8, §9, §10

[6] = test system: HCT116 colon carcinoma cells
Description: as §4, §5, §6, §7, §8, §9, §10

CDK6 = CDK6 (Homo sapiens, UniProt Q00534); experiment: Biochemical CDK6 inhibition assay
Chain of CDK6 (Q00534 whole entry): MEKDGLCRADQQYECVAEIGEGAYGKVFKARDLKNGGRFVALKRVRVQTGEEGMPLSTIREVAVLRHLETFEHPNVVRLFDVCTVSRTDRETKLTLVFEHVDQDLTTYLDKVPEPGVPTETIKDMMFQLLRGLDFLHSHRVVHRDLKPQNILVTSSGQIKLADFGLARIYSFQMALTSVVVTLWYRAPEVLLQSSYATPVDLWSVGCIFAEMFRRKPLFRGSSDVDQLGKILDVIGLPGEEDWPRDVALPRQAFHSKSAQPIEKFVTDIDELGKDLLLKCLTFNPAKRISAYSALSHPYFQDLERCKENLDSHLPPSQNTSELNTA
Chain of CDK6 (P30281 whole entry partner): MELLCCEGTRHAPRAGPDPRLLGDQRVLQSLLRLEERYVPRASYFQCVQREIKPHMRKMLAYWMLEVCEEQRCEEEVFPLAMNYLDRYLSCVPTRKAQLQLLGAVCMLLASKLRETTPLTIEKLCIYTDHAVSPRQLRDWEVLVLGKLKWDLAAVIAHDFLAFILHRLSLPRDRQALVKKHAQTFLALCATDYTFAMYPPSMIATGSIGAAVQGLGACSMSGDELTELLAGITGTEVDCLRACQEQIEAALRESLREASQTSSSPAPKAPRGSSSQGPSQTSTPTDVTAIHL
Description: as §1

[7] = test system: CDK9-specific phosphorylation of RNA polymerase II (RNAPII) on serine 2; experiment: In-cell RNAPII phosphorylation (immunoblot); type: cell-based, human; conditions: 3 h
Description: (§2) The following cancer cell lines were investigated in the course of these studies: A2780 (ovarian), HCT116 (colon), RPMI8226 (myeloma), SKMel28 (melanoma), Colo205 (colorectal), MDA-MB-435 (melanoma), MDA-MB-453 (breast, carcinoma), MDA-MB-468 (breast, adenocarcinoma), A549 (lung), Raji (lymphoma, Burkitt). Cell lines were obtained from public repositories.
CDK9-specific phosphorylation of RNA polymerase II (RNAPII) on Serine 2 (Ser2). Asynchronous cells were treated with an appropriate concentration of test compound or DMSO as a control. After 3 h incubation (37° C./5% CO2) cells were lysed with CLB-1 lysis buffer (Zeptosense, Switzerland), the lysate was cleared by centrifugation (10 min, 13000 rpm, RT) and subjected to SDS-PAGE. Total protein was blotted on PVDF membranes and analyzed using antibodies against S2-phosphorylated RNAPII (H5; Covance) or total RNAPII (N-20; Santa Cruz) as an expression control. Visualization was conducted using secondary Alexa680- or IR800-coupled antibodies (Molecular Probes) against mouse or rabbit Fc tails on the Odyssey-system (Licor). Specific bands were quantified and IC50 values of inhibition of RNAPII phosphorylation were estimated.

[8] = test system: CDK1-dependent Eg-5 phosphorylation on threonine 927; experiment: In-cell Eg-5 phosphorylation (immunoblot); type: cell-based, human; conditions: 1 h
Text: (§3) This set of assays represents CDKs involved in cell cycle progression (CDK1, 4/6), and the “regulatory CDK” (CDK9) which is involved in transcriptional regulation.
as §2
CDK1-dependent Eg-5 phosphorylation on threonine 927 (Thr927phos). Thr927phos was investigated by arresting cells over night in G2/M phase with 25 ng/ml nocodazole (optimized final concentration) followed by treatment with DMSO as control or an appropriate concentration of test compound for 1 hour. Detached as well as adherent cells were collected and lysed with CLB-1 lysis buffer. the lysate cleared by centrifugation and subjected to SDS-PAGE. The proteins were blotted on PVDF membranes and subsequently analyzed by antibodies against total Eg-5 (Becton Dickinson) and Eg-5 Thr927phos (Bio legend). Visualization and estimation of IC50 was conducted as above.

[9] = test system: CDK4/6-specific phosphorylation of Rb on serine 780; experiment: In-cell Rb phosphorylation (immunoblot); type: cell-based, human; conditions: 1 h, read-out: IC50 (uM) - Rb-5 phosphorylation
Text: as §3, §2
CDK4/6-specific phosphorylation of Rb on serine 780 (Ser780phos). Asynchronous growing cells were treated with an appropriate concentration of test compound or DMSO for 1 hour. Proteins were extracted using the AllPrep RNA/Protein kit according to the manufacturer's recommendations (Qiagen, Germany). Rb was immunoprecipitated over night using Ab05 antibody (Oncogene Inc.). Proteins were separated by SDS-PAGE, blotted to PVDF membranes and analyzed with antibodies against total (sc-102; Santa Cruz) or Ser780-phosphorylated Rb proteins (Cell Signalling). Visualization and quantification was performed as above.

[10] = 30 [28] mg/kg po bidx10, day 10
[11] = HCT116, 100 [93] mg/kg po qdx10

CC(C)c1nn(-c2c(Cl)cccc2Cl)c2nc(Cc3ccc(CN4CCCC4)c(O)c3)[nH]c(=O)c12 [Compound P, 1-(2,6-dichlorophenyl)-6-(3-hydroxy-4-pyrrolidinomethyl-phenyl)methyl-3-isopropyl-pyrazolo[3,4-d]pyrimidin-4-one]
permeability in a PAMPA assay [1]: about 57%
solubility [2]: ~210 µM (≈ 108 µg/mL)
IC50 [3]: 0.016 to 1.6 µM
LCK ± CI (95%) (Td: 2.1 d) ([4]; 15 [14] mg/kg po bidx10): 0.20 ± 0.16 and 0.20
Toxic Mortality ([4]; 15 [14] mg/kg po bidx10, N=10): 0
Max % TGI (d) ([4]; 15 [14] mg/kg po bidx10, day 10): 34 (10) %
Max % BW Loss (d) ([4]; 15 [14 free base] mg/kg po bidx10, HCl salt, day 6): 0 (6) %
LCK ± CI (95%) (Td: 2.1 d) ([4]; 30 [28] mg/kg po bidx10): 0.44 ± 0.19 and 0.44
Toxic Mortality ([4]; 30 [28] mg/kg po bidx10, N=10): 0
Max % BW Loss (d) [4, 10]: 0.1 (10) %
Max % TGI (d) [4, 10]: 54 (10) %
LCK ± CI (95%) (Td: 2.1 d) ([4]; 50 [47] mg/kg po bidx10): 1.06 ± 0.48 and 1.06
Toxic Mortality ([4]; 50 [47] mg/kg po bidx10, N=10): 0
Max % TGI (d) ([4]; 50 [47] mg/kg po bidx10, day 13): 81 (13) %
Max % BW Loss (d) ([4]; 50 [47] mg/kg po bidx10, day 15): 4.7 (15) %
LCK ± CI (95%) (Td: 1.7 d) ([5]; 40 [37] mg/kg po qdx10): 0.34 ± 0.21 and 0.34
Toxic Mortality ([5]; 40 [37] mg/kg po qdx10, N=10): 0
Max % TGI (d) ([5]; 40 [37] mg/kg po qdx10, day 11): 46.2 (11) %
LCK ± CI (95%) (Td: 1.7 d) ([5]; 70 [65] mg/kg po qdx10): 0.75 ± 0.46 and 0.75
Toxic Mortality ([5]; 70 [65] mg/kg po qdx10, N=10): 0
Max % TGI (d) ([5]; 70 [65] mg/kg po qdx10, day 11): 61.1 (11) %
LCK ± CI (95%) (Td: 1.7 d) ([5]; 100 [93] mg/kg po qdx9): 1.78 ± 0.56 and 1.78
Toxic Mortality ([5]; 100 [93] mg/kg po qdx9): 1/10
Max % TGI (d) ([5]; 100 [93] mg/kg po qdx9, day 11): 83.9 (11) %
LCK ± CI (95%) (Td: 2.6 d) (H460 NSCLC; H460, 40 [37] mg/kg po qdx10): 0.22 ± 0.12 and 0.22
Toxic Mortality (H460 NSCLC; H460, 40 [37] mg/kg po qdx10): 0
Max % TGI (d) (H460 NSCLC; H460, 40 [37] mg/kg po qdx10): 29.6 (13) %
LCK ± CI (95%) (Td: 2.6 d) (H460 NSCLC; H460, 70 [65] mg/kg po qdx10): 0.26 ± 0.12 and 0.26
Toxic Mortality (H460 NSCLC; H460, 70 [65] mg/kg po qdx10): 0
Max % TGI (d) (H460 NSCLC; H460, 70 [65] mg/kg po qdx10): 33.9 (13) %
LCK ± CI (95%) (Td: 2.6 d) (H460 NSCLC; H460, 100 [93] mg/kg po qdx10): 0.54 ± 0.17 and 0.48 and 0.54
Toxic Mortality (H460 NSCLC; H460, 100 [93] mg/kg po qdx10): 0
Max % TGI (d) (H460 NSCLC; H460, 100 [93] mg/kg po qdx10): 48.7 (13) %
Max % BW Loss (d) (H460 NSCLC; mouse, in vivo, po): 1.0 (8) % and 0% and 7.4 (13) %
LCK ± CI (95%) (Td: 6.8 d) ([6]; HCT116, 40 [37] mg/kg po qdx10): 0.23 ± 0.11 and 0.23
Max % TGI (d) ([6]; HCT116, 40 [37] mg/kg po qdx10, day 20): 36.2 (20) %
LCK ± CI (95%) (Td: 6.8 d) ([6]; HCT116, 70 [65] mg/kg po qdx10): 0.41 ± 0.22 and 0.41
Max % TGI (d) ([6]; HCT116, 70 [65] mg/kg po qdx10, day 32): 50.2 (32) %
LCK ± CI (95%) (Td: 6.8 d) [6, 11]: 0.38 ± 0.13 and 0.38
Toxic Mortality [6, 11]: 1/10
Max % TGI (d) ([6]; HCT116, 100 [93] mg/kg po qdx10, day 16): 60.1 (16) %
Max % BW Loss (d) ([6]; mouse, in vivo, po): 17.3 (16) %

COc1ccc(F)c(F)c1C(=O)c1cnc(NC2CCN(S(C)(=O)=O)CC2)nc1N [Compound R547]
IC50 (CDK6): ~10 nM
IC50 ([7]; A2780 cells): ~1 µM
IC50 ([7]; Colo205 cells): ~0.5 µM
IC50 ([7]; HCT116 cells): ~0.3 µM
IC50 ([7]; MDA-MB-468 cells): ~0.3 µM
IC50 ([7]; RPMI8226 cells): ~0.5 µM
IC50 ([7]; Sk-mel-28 cells): ~0.3 µM
IC50 ([8]; A549 cells): ~0.03 µM
IC50 ([8]; A2780 cells): ~0.01 µM
IC50 ([8]; Colo205 cells): ~0.05 µM
IC50 ([8]; HCT116 cells): ~0.1 µM
IC50 ([8]; MDA-MB-435 cells): ~0.1 µM
IC50 ([8]; MDA-MB-453 cells): ~0.1 µM
IC50 ([8]; RPMI8226 cells): ~0.05 µM
IC50 ([8]; Raji cells): ~0.1 µM
IC50 ([9]; A2780 cells): ~0.1 µM
IC50 ([9]; Colo205 cells): ~0.1 µM
IC50 ([9]; HCT116 cells): ~0.1 µM
IC50 ([9]; MDA-MB-435 cells): ~0.3 µM
IC50 ([9]; RPMI8226 cells): ~0.3 µM
IC50 ([9]; Sk-mel-28 cells): ~0.1 µM
LCK ± CI (95%) (Td: 1.7 d) ([5]; 100 mg/kg po qdx1): 1.05 ± 0.56
Max % BW Loss (d) ([5]; 100 mg/kg po qdx1 (planned qdx10), day 9): 7.5 (9) %
Max % TGI (d) ([5]; 100 mg/kg po qdx1, day 11): 68.5 (11) %
LCK ± CI (95%) (Td: 2.6 d) (H460 NSCLC; H460, 40 mg/kg po q2dx5): 0.48 ± 0.20 and 0.48
Max % BW Loss (d) (H460 NSCLC; H460, 40 mg/kg po q2dx5, day 8): 1.3 (8) %
Max % TGI (d) (H460 NSCLC; H460, 40 mg/kg po q2dx5): 47.5 (13) %
LCK ± CI (95%) (Td: 6.8 d) ([6]; HCT116, 100 mg/kg po qdx10 (R547 suspension)): 0.70 ± 0.28
Max % BW Loss (d) ([6]; HCT116, 100 mg/kg po qdx10 (R547 suspension), day 12): 14.5 (12) %
Max % TGI (d) ([6]; HCT116, 100 mg/kg po qdx10 (R547 suspension), day 16): 72.8 (16) %

O=P1(N(CCCl)CCCl)NCCCO1 (stereo not shown) [Cytoxan, cyclophosphamide]
LCK ± CI (95%) (Td: 2.1 d) ([4]; 100 mg/kg ip q2dx5): 3.56 ± 0.43 and 3.56
Cure ([4]; 100 mg/kg ip q2dx5, N=10): 0
Toxic Mortality ([4]; 100 mg/kg ip q2dx5, N=10): 0
Max % BW Loss (d) ([4]; 100 mg/kg ip q2dx5, day 10): 5.9 (10) %
Max % TGI (d) ([4]; 100 mg/kg ip q2dx5, day 13): 98 (13) %
CR ([4]; 100 mg/kg ip q2dx5, mice with complete regression, N=10): 5
PR ([4]; 100 mg/kg ip q2dx5, mice with partial regression, N=10): 5
